Measurements published in publication PMC6155631, “Immobilized Trienzymatic System with Enhanced Stabilization for the Biotransformation of Lactose” (Molecules : A Journal of Synthetic Chemistry and Natural …, 2017).

Target: T1, β-galactosidase from Bacillus circulans (Biolacta N-5) (Niallia circulans, UniProt E5RWQ2)
T1 construct: gene bga; commercial Biolacta N-5 (Daiwa Kasei), partially purified; several isoforms, called monomeric
Experiment: batch hydrolysis, HPLC
Format: biochemical
Conditions: soluble enzyme together with P1 and P2; Mozzarella whey lactose, 50 °C, 6 h
From the text: batch hydrolysis, HPLC on β-galactosidase from Bacillus circulans (Biolacta N-5)

T1 sequence (E5RWQ2 24-1737): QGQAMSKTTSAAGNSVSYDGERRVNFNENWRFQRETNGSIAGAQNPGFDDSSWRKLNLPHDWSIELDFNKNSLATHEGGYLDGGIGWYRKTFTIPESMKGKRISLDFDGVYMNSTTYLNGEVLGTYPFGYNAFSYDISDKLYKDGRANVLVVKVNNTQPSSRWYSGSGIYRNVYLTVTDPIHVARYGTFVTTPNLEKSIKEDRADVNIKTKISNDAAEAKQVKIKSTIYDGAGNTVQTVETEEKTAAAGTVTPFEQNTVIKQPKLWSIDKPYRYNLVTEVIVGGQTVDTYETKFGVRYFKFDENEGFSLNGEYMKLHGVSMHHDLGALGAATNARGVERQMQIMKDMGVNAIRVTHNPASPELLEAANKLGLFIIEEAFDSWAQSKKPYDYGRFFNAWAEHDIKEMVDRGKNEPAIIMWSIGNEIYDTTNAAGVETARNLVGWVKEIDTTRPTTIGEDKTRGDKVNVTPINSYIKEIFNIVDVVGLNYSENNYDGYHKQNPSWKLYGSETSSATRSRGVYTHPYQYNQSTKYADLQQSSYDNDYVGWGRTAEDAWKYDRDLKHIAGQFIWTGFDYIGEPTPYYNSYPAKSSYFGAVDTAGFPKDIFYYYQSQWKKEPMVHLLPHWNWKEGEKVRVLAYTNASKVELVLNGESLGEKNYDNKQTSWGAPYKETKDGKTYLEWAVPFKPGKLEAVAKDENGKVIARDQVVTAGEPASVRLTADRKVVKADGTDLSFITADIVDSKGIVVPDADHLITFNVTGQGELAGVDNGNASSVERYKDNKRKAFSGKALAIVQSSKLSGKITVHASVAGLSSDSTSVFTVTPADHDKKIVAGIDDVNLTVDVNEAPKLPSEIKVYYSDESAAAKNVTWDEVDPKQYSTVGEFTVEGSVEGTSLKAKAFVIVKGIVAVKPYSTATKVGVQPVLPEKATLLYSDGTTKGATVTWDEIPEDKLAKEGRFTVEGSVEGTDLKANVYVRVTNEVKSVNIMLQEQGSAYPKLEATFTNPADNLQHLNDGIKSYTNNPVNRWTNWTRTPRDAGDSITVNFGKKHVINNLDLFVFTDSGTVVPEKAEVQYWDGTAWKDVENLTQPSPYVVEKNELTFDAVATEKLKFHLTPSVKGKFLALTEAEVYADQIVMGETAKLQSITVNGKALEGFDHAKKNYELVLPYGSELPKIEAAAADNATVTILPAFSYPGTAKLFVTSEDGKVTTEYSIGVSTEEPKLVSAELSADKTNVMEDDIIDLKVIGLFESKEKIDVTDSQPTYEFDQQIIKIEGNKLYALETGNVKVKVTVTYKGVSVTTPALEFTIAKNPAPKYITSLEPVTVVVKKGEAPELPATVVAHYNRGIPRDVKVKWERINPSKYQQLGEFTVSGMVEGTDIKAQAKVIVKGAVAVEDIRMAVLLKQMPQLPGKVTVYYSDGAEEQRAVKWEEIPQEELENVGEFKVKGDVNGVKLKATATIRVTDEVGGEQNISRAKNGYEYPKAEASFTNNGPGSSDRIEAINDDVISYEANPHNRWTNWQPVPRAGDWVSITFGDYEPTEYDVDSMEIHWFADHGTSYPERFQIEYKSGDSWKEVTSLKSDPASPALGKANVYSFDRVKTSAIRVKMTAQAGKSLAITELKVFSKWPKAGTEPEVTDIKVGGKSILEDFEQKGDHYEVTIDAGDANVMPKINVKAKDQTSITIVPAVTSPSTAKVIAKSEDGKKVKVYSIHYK

## OC[C@H]1O[C@@H](O[C@H]2[C@H](O)[C@@H](O)C(O)O[C@@H]2CO)[C@H](O)[C@@H](O)[C@H]1O (stereo partly shown) [lactose]
  Lactolysis (%): 76 ± 1%
